Test results published in paper PMC11921695 (BMC Cancer, 2025).

System: patients with HIV-associated KS

Cn1cnc2c(F)c(Nc3ccc(Br)cc3Cl)c(C(=O)NOCCO)cc21 [selumetinib, 6-(4-Bromo-2-chloro-phenylamino)-7-fluro-3-methyl-3 H-benzoimidazole-5-carboxylic acid (2-hydroxy-ethoxy)-amide hydrogen sulphate]
grade 3 ARs, all rash acneiform (75 mg bd selumetinib): three
patients who experienced at least one adverse event (AE) (16 treated patients): 16
ALT Increased: Number of AEs reported (CTCAE Grade ≤2): 13
AST Increased: Number of AEs reported (CTCAE Grade ≤2): 11
Albumin Decreased: Number of AEs reported (CTCAE Grade ≤2): 12
CPK Increased: Number of AEs reported (CTCAE Grade ≤2): 14
Fatigue: Number of AEs reported (CTCAE Grade ≤2): 10
Nausea: Number of AEs reported (CTCAE Grade ≤2): 11
Red Blood Cell Count Decreased: Number of AEs reported (CTCAE Grade ≤2): 22
Vomiting: Number of AEs reported (CTCAE Grade ≤2): 11
Blood and lymphatic system disorders: Adverse Events Grade 1 E (E = events, any dose): 5
Blood and lymphatic system disorders: Adverse Events Grade 2 E (E = events, any dose): 1
Blood and lymphatic system disorders: Adverse Events Grade3 E (E = events, any dose): 0
Blood and lymphatic system disorders: Adverse Reactions Grade 1 E (E = events, any dose): 4
Blood and lymphatic system disorders: Adverse Reactions Grade 2 E (E = events, any dose): 1
Blood and lymphatic system disorders: Adverse Reactions Grade 3 E (E = events, any dose): 0
Cardiac disorders: Adverse Events Grade 1 E (E = events, any dose): 1
Cardiac disorders: Adverse Events Grade 2 E (E = events, any dose): 0
Cardiac disorders: Adverse Events Grade3 E (E = events, any dose): 0
Cardiac disorders: Adverse Reactions Grade 1 E (E = events, any dose): 0
Cardiac disorders: Adverse Reactions Grade 2 E (E = events, any dose): 0
Cardiac disorders: Adverse Reactions Grade 3 E (E = events, any dose): 0
Eye disorders: Adverse Events Grade 1 E (E = events, any dose): 9
Eye disorders: Adverse Events Grade 2 E (E = events, any dose): 3
Eye disorders: Adverse Events Grade3 E (E = events, any dose): 0
Eye disorders: Adverse Reactions Grade 1 E (E = events, any dose): 6
Eye disorders: Adverse Reactions Grade 2 E (E = events, any dose): 3
Eye disorders: Adverse Reactions Grade 3 E (E = events, any dose): 0
Gastrointestinal disorders: Adverse Events Grade 1 E (E = events, any dose): 47
Gastrointestinal disorders: Adverse Events Grade 2 E (E = events, any dose): 13
Gastrointestinal disorders: Adverse Events Grade3 E (E = events, any dose): 0
Gastrointestinal disorders: Adverse Reactions Grade 1 E (E = events, any dose): 44
Gastrointestinal disorders: Adverse Reactions Grade 2 E (E = events, any dose): 9
Gastrointestinal disorders: Adverse Reactions Grade 3 E (E = events, any dose): 0
General disorders and administration site conditions: Adverse Events Grade 1 E (E = events, any dose): 33
General disorders and administration site conditions: Adverse Events Grade 2 E (E = events, any dose): 5
General disorders and administration site conditions: Adverse Events Grade3 E (E = events, any dose): 1
General disorders and administration site conditions: Adverse Reactions Grade 1 E (E = events, any dose): 23
General disorders and administration site conditions: Adverse Reactions Grade 2 E (E = events, any dose): 2
General disorders and administration site conditions: Adverse Reactions Grade 3 E (E = events, any dose): 0
Infections and infestations: Adverse Events Grade 1 E (E = events, any dose): 2
Infections and infestations: Adverse Events Grade 2 E (E = events, any dose): 6
Infections and infestations: Adverse Events Grade3 E (E = events, any dose): 0
Infections and infestations: Adverse Reactions Grade 1 E (E = events, any dose): 1
Infections and infestations: Adverse Reactions Grade 2 E (E = events, any dose): 4
Infections and infestations: Adverse Reactions Grade 3 E (E = events, any dose): 0
Injury, poisoning and procedural complications: Adverse Events Grade 1 E (E = events, any dose): 2
Injury, poisoning and procedural complications: Adverse Events Grade 2 E (E = events, any dose): 3
Injury, poisoning and procedural complications: Adverse Events Grade3 E (E = events, any dose): 0
Injury, poisoning and procedural complications: Adverse Reactions Grade 1 E (E = events, any dose): 0
Injury, poisoning and procedural complications: Adverse Reactions Grade 2 E (E = events, any dose): 0
Injury, poisoning and procedural complications: Adverse Reactions Grade 3 E (E = events, any dose): 0
Investigations: Adverse Events Grade 1 E (E = events, any dose): 133
Investigations: Adverse Events Grade 2 E (E = events, any dose): 7
Investigations: Adverse Events Grade3 E (E = events, any dose): 2
Investigations: Adverse Reactions Grade 1 E (E = events, any dose): 81
Investigations: Adverse Reactions Grade 2 E (E = events, any dose): 6
Investigations: Adverse Reactions Grade 3 E (E = events, any dose): 0
Metabolism and nutrition disorders: Adverse Events Grade 1 E (E = events, any dose): 13
Metabolism and nutrition disorders: Adverse Events Grade 2 E (E = events, any dose): 0
Metabolism and nutrition disorders: Adverse Events Grade3 E (E = events, any dose): 0
Metabolism and nutrition disorders: Adverse Reactions Grade 1 E (E = events, any dose): 9
Metabolism and nutrition disorders: Adverse Reactions Grade 2 E (E = events, any dose): 0
Metabolism and nutrition disorders: Adverse Reactions Grade 3 E (E = events, any dose): 0
Musculoskeletal and connective tissue disorders: Adverse Events Grade 1 E (E = events, any dose): 4
Musculoskeletal and connective tissue disorders: Adverse Events Grade 2 E (E = events, any dose): 0
Musculoskeletal and connective tissue disorders: Adverse Events Grade3 E (E = events, any dose): 0
Musculoskeletal and connective tissue disorders: Adverse Reactions Grade 1 E (E = events, any dose): 2
Musculoskeletal and connective tissue disorders: Adverse Reactions Grade 2 E (E = events, any dose): 0
Musculoskeletal and connective tissue disorders: Adverse Reactions Grade 3 E (E = events, any dose): 0
Nervous system disorders: Adverse Events Grade 1 E (E = events, any dose): 7
Nervous system disorders: Adverse Events Grade 2 E (E = events, any dose): 0
Nervous system disorders: Adverse Events Grade3 E (E = events, any dose): 0
Nervous system disorders: Adverse Reactions Grade 1 E (E = events, any dose): 5
Nervous system disorders: Adverse Reactions Grade 2 E (E = events, any dose): 0
Nervous system disorders: Adverse Reactions Grade 3 E (E = events, any dose): 0
Psychiatric disorders: Adverse Events Grade 1 E (E = events, any dose): 3
Psychiatric disorders: Adverse Events Grade 2 E (E = events, any dose): 0
Psychiatric disorders: Adverse Events Grade3 E (E = events, any dose): 0
Psychiatric disorders: Adverse Reactions Grade 1 E (E = events, any dose): 3
Psychiatric disorders: Adverse Reactions Grade 2 E (E = events, any dose): 0
Psychiatric disorders: Adverse Reactions Grade 3 E (E = events, any dose): 0
Renal and urinary disorders: Adverse Events Grade 1 E (E = events, any dose): 2
Renal and urinary disorders: Adverse Events Grade 2 E (E = events, any dose): 0
Renal and urinary disorders: Adverse Events Grade3 E (E = events, any dose): 0
Renal and urinary disorders: Adverse Reactions Grade 1 E (E = events, any dose): 1
Renal and urinary disorders: Adverse Reactions Grade 2 E (E = events, any dose): 0
Renal and urinary disorders: Adverse Reactions Grade 3 E (E = events, any dose): 0
Respiratory, thoracic and mediastinal disorders: Adverse Events Grade 1 E (E = events, any dose): 11
Respiratory, thoracic and mediastinal disorders: Adverse Events Grade 2 E (E = events, any dose): 2
Respiratory, thoracic and mediastinal disorders: Adverse Events Grade3 E (E = events, any dose): 0
Respiratory, thoracic and mediastinal disorders: Adverse Reactions Grade 1 E (E = events, any dose): 5
Respiratory, thoracic and mediastinal disorders: Adverse Reactions Grade 2 E (E = events, any dose): 1
Respiratory, thoracic and mediastinal disorders: Adverse Reactions Grade 3 E (E = events, any dose): 0
Skin and subcutaneous tissue disorders: Adverse Events Grade 1 E (E = events, any dose): 29
Skin and subcutaneous tissue disorders: Adverse Events Grade 2 E (E = events, any dose): 17
Skin and subcutaneous tissue disorders: Adverse Events Grade3 E (E = events, any dose): 3
Skin and subcutaneous tissue disorders: Adverse Reactions Grade 1 E (E = events, any dose): 24
Skin and subcutaneous tissue disorders: Adverse Reactions Grade 2 E (E = events, any dose): 16
Skin and subcutaneous tissue disorders: Adverse Reactions Grade 3 E (E = events, any dose): 3
Vascular disorders: Adverse Events Grade 1 E (E = events, any dose): 2
Vascular disorders: Adverse Events Grade 2 E (E = events, any dose): 0
Vascular disorders: Adverse Events Grade3 E (E = events, any dose): 0
Vascular disorders: Adverse Reactions Grade 1 E (E = events, any dose): 0
Vascular disorders: Adverse Reactions Grade 2 E (E = events, any dose): 0
Vascular disorders: Adverse Reactions Grade 3 E (E = events, any dose): 0
Blood and lymphatic system disorders: Adverse Events Grade 1 N (N = patients, any dose): 4
Blood and lymphatic system disorders: Adverse Events Grade 2 N (N = patients, any dose): 1
